Laboratory results from PubChem BioAssay AID1259407 (Chemical Carcinogenesis Research Information System (CCRIS), 2018).
Active and inactive are the calls of the source. No rule for the calls is given here.

System: CCRIS mutagenicity, Ames/micronucleus/aberration tests
Test: CCRIS mutagenicity studies
[1] = Test System: AMES SALMONELLA TYPHIMURIUM, Strain/Indicator: TA98, Metabolic Activation: NONE, Method: PREINCUBATION
[2] = Test System: AMES SALMONELLA TYPHIMURIUM, Strain/Indicator: TA100, Metabolic Activation: NONE, Method: PREINCUBATION
[3] = Test System: AMES SALMONELLA TYPHIMURIUM, Strain/Indicator: TA100, Metabolic Activation: NONE, Method: STANDARD PLATE
[4] = Test System: AMES SALMONELLA TYPHIMURIUM, Strain/Indicator: TA1535, Metabolic Activation: NONE, Method: PREINCUBATION
[5] = Test System: AMES SALMONELLA TYPHIMURIUM, Strain/Indicator: TA1537, Metabolic Activation: NONE, Method: PREINCUBATION
[6] = Test System: AMES SALMONELLA TYPHIMURIUM, Strain/Indicator: TA1538, Metabolic Activation: NONE, Method: PREINCUBATION
[7] = Test System: AMES SALMONELLA TYPHIMURIUM, Strain/Indicator: TA98, Metabolic Activation: RAT, LIVER, S-9, AROCLOR 1254, Method: STANDARD PLATE
[8] = Test System: AMES SALMONELLA TYPHIMURIUM, Strain/Indicator: TA100, Metabolic Activation: RAT, LIVER, S-9, AROCLOR 1254, Method: STANDARD PLATE
[9] = Test System: AMES SALMONELLA TYPHIMURIUM, Strain/Indicator: TA98, Metabolic Activation: NONE, Method: STANDARD PLATE

**Q.** For `CC(=O)C(C)=O`, which mutagenic call [1] is on record?
**A.** inactive; negative

**Q.** And the mutagenic call (Test System: AMES SALMONELLA TYPHIMURIUM, Strain/Indicator: TA98, Metabolic Activation: RAT, LIVER, S-9, AROCLOR 1254, Method: PREINCUBATION)?
**A.** inactive; negative

**Q.** What about the mutagenic call [2] of the same compound?
**A.** inactive; negative

**Q.** And the mutagenic call [3]?
**A.** active; positive

**Q.** And the mutagenic call (Test System: AMES SALMONELLA TYPHIMURIUM, Strain/Indicator: TA100, Metabolic Activation: RAT, LIVER, S-9, AROCLOR 1254, Method: PREINCUBATION)?
**A.** inactive; negative

**Q.** What about the mutagenic call (Test System: AMES SALMONELLA TYPHIMURIUM, Strain/Indicator: TA100, Metabolic Activation: RAT, LIVER, S-9, PHENOBARBITAL, Method: STANDARD PLATE) of the same compound?
**A.** active; positive

**Q.** And the mutagenic call (Test System: AMES SALMONELLA TYPHIMURIUM, Strain/Indicator: TA102, Metabolic Activation: NONE, Method: PREINCUBATION)?
**A.** active; positive

**Q.** What about the mutagenic call (Test System: AMES SALMONELLA TYPHIMURIUM, Strain/Indicator: TA102, Metabolic Activation: RAT, LIVER, S-9, AROCLOR 1254, Method: PREINCUBATION) of the same compound?
**A.** active; positive

**Q.** What about the mutagenic call (Test System: AMES SALMONELLA TYPHIMURIUM, Strain/Indicator: TA104, Metabolic Activation: NONE, Method: PREINCUBATION) of the same compound?
**A.** active; positive

**Q.** What about the mutagenic call [4] of the same compound?
**A.** inactive; negative

**Q.** What about the mutagenic call [5] of the same compound?
**A.** inactive; negative

**Q.** And the mutagenic call [6]?
**A.** inactive; negative

**Q.** And the mutagenic call (Test System: E. COLI, Strain/Indicator: WP2 UVRA, Metabolic Activation: NONE, Method: PREINCUBATION)?
**A.** inactive; negative

**Q.** What does the source list for `Cc1cc2c(cc1C)-c1ccccc1C2`?
**A.** mutagenic call [7]: inactive; negative; mutagenic call [8]: inactive; negative

**Q.** With `CC(=O)/C=C/c1ccccc1` as the compound, how does the mutagenic call (Test System: AMES SALMONELLA TYPHIMURIUM, Strain/Indicator: TA98, Metabolic Activation: HAMSTER, LIVER, S-9, AROCLOR 1254, Method: STANDARD PLATE) read?
**A.** inactive; negative

**Q.** And the mutagenic call [9]?
**A.** inactive; negative

**Q.** And the mutagenic call [7]?
**A.** inactive; negative

**Q.** And the mutagenic call (Test System: AMES SALMONELLA TYPHIMURIUM, Strain/Indicator: TA100, Metabolic Activation: HAMSTER, LIVER, S-9, AROCLOR 1254, Method: STANDARD PLATE)?
**A.** active; positive

**Q.** What about the mutagenic call [3] of the same compound?
**A.** inactive; negative

**Q.** What about the mutagenic call [8] of the same compound?
**A.** active; positive

**Q.** What about the mutagenic call (Test System: Mouse lymphoma, Strain/Indicator: L5178Y (tk+/tk-), Metabolic Activation: None, Method: Suspension/plate) of the same compound?
**A.** active; positive

**Q.** And the mutagenic call (Test System: Mouse lymphoma, Strain/Indicator: L5178Y (tk+/tk-), Metabolic Activation: Rat, Liver, S-9, Aroclor 1254, Method: Suspension/plate)?
**A.** inactive; negative

**Q.** Which results are given for `CC(=O)N(O)c1ccc(/C=C/c2ccccc2)cc1`?
**A.** mutagenic call [1]: inactive; negative; mutagenic call (Test System: AMES SALMONELLA TYPHIMURIUM, Strain/Indicator: TA98, Metabolic Activation: RAT, LIVER, CYTOSOL, Method: PREINCUBATION): active; positive; mutagenic call (Test System: AMES SALMONELLA TYPHIMURIUM, Strain/Indicator: TA98, Metabolic Activation: RAT, LIVER, MICROSOMES, Method: PREINCUBATION): active; positive; mutagenic call (Test System: CHINESE HAMSTER V-79, Strain/Indicator: V-79/6-THIOGUANINE, Metabolic Activation: NONE, Method: STANDARD PLATE): active; positive

**Q.** What does the source list for `O=C(O)Cc1ccc([N+](=O)[O-])cc1`?
**A.** mutagenic call [1]: active; positive; mutagenic call [2]: active; positive; mutagenic call [4]: inactive; negative; mutagenic call [5]: inactive; negative; mutagenic call [6]: inactive; negative

**Q.** Which mutagenic call [9] does the source give for `CS(=O)(=O)c1ccc(Cl)cc1` here?
**A.** inactive; negative

**Q.** And the mutagenic call [7]?
**A.** inactive; negative

**Q.** What about the mutagenic call [3] of the same compound?
**A.** inactive; negative

**Q.** What about the mutagenic call [8] of the same compound?
**A.** inactive; negative

**Q.** And the mutagenic call (Test System: AMES SALMONELLA TYPHIMURIUM, Strain/Indicator: TA1535, Metabolic Activation: NONE, Method: STANDARD PLATE)?
**A.** inactive; negative

**Q.** And the mutagenic call (Test System: AMES SALMONELLA TYPHIMURIUM, Strain/Indicator: TA1535, Metabolic Activation: RAT, LIVER, S-9, AROCLOR 1254, Method: STANDARD PLATE)?
**A.** inactive; negative

**Q.** What about the mutagenic call (Test System: AMES SALMONELLA TYPHIMURIUM, Strain/Indicator: TA1537, Metabolic Activation: NONE, Method: STANDARD PLATE) of the same compound?
**A.** inactive; negative

**Q.** And the mutagenic call (Test System: AMES SALMONELLA TYPHIMURIUM, Strain/Indicator: TA1537, Metabolic Activation: RAT, LIVER, S-9, AROCLOR 1254, Method: STANDARD PLATE)?
**A.** inactive; negative

**Q.** What about the mutagenic call (Test System: AMES SALMONELLA TYPHIMURIUM, Strain/Indicator: TA1538, Metabolic Activation: NONE, Method: STANDARD PLATE) of the same compound?
**A.** inactive; negative

**Q.** And the mutagenic call (Test System: AMES SALMONELLA TYPHIMURIUM, Strain/Indicator: TA1538, Metabolic Activation: RAT, LIVER, S-9, AROCLOR 1254, Method: STANDARD PLATE)?
**A.** inactive; negative

**Q.** Which mutagenic call [9] does the source give for `O=C(c1ccc(-c2ccccc2)cc1)C1OC1c1ccccc1` (stereo unspecified) here?
**A.** inactive; negative

**Q.** And the mutagenic call [7]?
**A.** inactive; negative

**Q.** What about the mutagenic call [3] of the same compound?
**A.** inactive; negative

**Q.** What about the mutagenic call [8] of the same compound?
**A.** inactive; negative
